Assay results: patent US11045416B2, “Topical compositions comprising Pichia anomala and retinol” (Johnson & Johnson Consumer Inc., priority 2018, dated 2021)

System: Heparin Binding Epidermal Growth Factor (HBEGF)
Test: HBEGF gene expression in human skin explants by qPCR (Example 3)
Format: cell-based
Conditions: 4 μL topically, 48 hours; observed minus untreated (100)
Method: First, abdominal skin samples were obtained from human adults undergoing abdominoplasty surgery. Informed consent was obtained from each patient, and all experimental steps were approved by an institutional review board (IRB). Subcutaneous fat was carefully removed and skin biopsies of 0.93 cm^2 were prepared under sterile conditions and acclimated in keratinocyte growth media sold under the tradename KGM-GOLD BULLETKIT (Lonza, Walkersville, Md.), with 10% antibiotics under a 5% CO2 humidified atmosphere overnight.
The skin explants were treated topically with 4 μL of the various formulations and left to incubate for 48 hours. An untreated explant sample was used as the control. In the case of combined application of Composition 5 and the 5% solution of Pichia anomala extract, 4 μL of each were applied. At the end of the 48 h, epidermis and dermis were separated by heating. […]
Gene expression assays were performed by real time quantitative polymerase chain reaction (PCR) based on the SyBR green method. qPCR was run on a real time PCR system sold under the tradename CFX96 TOUCH (Bio-Rad Laboratories, Inc., Hercules, Calif.). […] The fold changes were calculated in comparison to the untreated controls and ANOVA statistical test was performed.

HBEGF expression, Observed Normalized to untreated: 291
Compound: CC1=C(/C=C/C(C)=C/C=C/C(C)=C/CO)C(C)(C)CCC1 [retinol, Retinol]
